Laboratory results published in patent publication US11549123B2, “Plant EPSP synthases and methods of use” (PIONEER HI-BRED INTERNATIONAL, INC., priority 2015, dated 2023).
Positions count from the first letter of the chain named.

Tests used:
[1] = target: T1, Zea mays EPSPS, native, SEQ ID NO:2 (Zea mays, UniProt O24566); assay: Substrate saturation analysis with glyphosate (Example 8, global fit to competitive inhibition), native maize; type: biochemical
T1 construct: E. coli BL21(DE3), Ni-NTA purified
T1 sequence (O24566 with tags, fused parts or gaps): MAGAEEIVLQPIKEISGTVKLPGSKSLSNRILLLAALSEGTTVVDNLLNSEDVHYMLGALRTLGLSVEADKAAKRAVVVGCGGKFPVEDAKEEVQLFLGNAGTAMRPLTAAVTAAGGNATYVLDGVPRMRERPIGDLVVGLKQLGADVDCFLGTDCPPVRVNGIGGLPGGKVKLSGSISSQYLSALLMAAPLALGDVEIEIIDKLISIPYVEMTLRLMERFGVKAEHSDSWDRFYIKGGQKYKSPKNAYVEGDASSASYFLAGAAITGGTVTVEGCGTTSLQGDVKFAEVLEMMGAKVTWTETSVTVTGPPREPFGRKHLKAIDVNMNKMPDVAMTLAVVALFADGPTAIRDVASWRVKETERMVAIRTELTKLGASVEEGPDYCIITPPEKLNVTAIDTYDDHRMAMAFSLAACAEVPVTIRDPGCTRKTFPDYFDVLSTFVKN
Description: Generally, (kcat/KM)*KI is obtained by performing substrate saturation analysis in the absence and presence of inhibitor. However, that analysis takes longer. […] To validate the method, (kcat/KM)*KI was quantified using both methods—traditional (saturation) and the instant method (rapid), for variants of maize 5-enolpyruvylshikimate-3-phosphate synthase (EPSPS) and its competitive inhibitor, glyphosate.
The amino acid sequence of mature Zea mays EPSPS was obtained from GenBank entry CAA44974.1 (SEQ ID NO:2). A nucleotide sequence was created to add an N-terminal methionine and to optimize codon usage for expression in E. coli. The synthesized gene was cloned into an expression vector that provides a T7 promoter driving expression of the protein and a 10× N-terminal histidine tag. Variants selected for this study include native maize EPSPS and variants generated by a gene shuffling cascade described herein. The proteins were expressed in E. coli BL21(DE3) and purified by Ni-NTA resin (Qiagen). Protein concentration was determined by absorbance at 280 nm using an extinction coefficient of 0.676 OD/mg/m L. The proteins were normalized to 0.5 mg/mL for assay.
EPSPS activity was determined by quantifying the phosphate generated by the reaction. Release of phosphate was coupled to reaction with MESG, catalyzed by purine-nucleoside phosphorylase, using standard methods. The absorbance change that occurs was monitored continuously at 360 nm, where the extinction is 11,200 M-1 cm-1, with a Spectramax plate reader (Molecular Devices). […] The enzyme concentration was adjusted so as to generate sufficient signal without exceeding the limit for linear initial reaction rates. The same procedure was repeated with two or three concentrations of glyphosate and the data were processed by non-linear regression analysis with GraphPad Prism (graphpad.com) and globally fitted to the Michaelis-Menten equation for competitive inhibition.
To validate that the rapid method yields an accurate estimation of (kcat/KM)*KI, the results were compared with those obtained by full substrate saturation analysis. […]

[2] = target: T2, Zea mays EPSPS variant L-A at positions 103-107 (Zea mays, UniProt O24566, P106A/T102L); assay: EPSPS substrate saturation kinetics, maize variant 103L 107A; type: biochemical
T2 sequence (O24566 with tags, fused parts or gaps T102L/P106A): T1 sequence (O24566 with tags, fused parts or gaps) with T103L, P107A
Description: EPSPS activity was determined by quantifying the phosphate generated from the EPSPS reaction. Release of inorganic phosphate was coupled to reaction with 2-amino-6-mercapto-7-methylpurine ribonucleoside, catalyzed by purine-nucleoside phosphorylase (M R Webb, Proc. Natl. Acad. Sci. 89:4884-4887, 1992). The absorbance change that occurs was monitored at 360 nm, where the extinction is 11,200 M^−1 cm^−1, with a Spectramax plate reader (Molecular Devices). To determine kinetic parameters, the varied substrate was present at seven concentrations (the eighth being the blank, containing no substrate) ranging from 4 to 400 uM and the unvaried substrate present at saturation. Six microliters of 50-fold concentrated stock solutions of the varied substrate were placed in the wells of the 96-well assay plate and reactions were started with the addition of a mixture containing 25 mM Hepes, pH 7, 100 mM KCl, 0.3 mM 2-amino-6-mercapto-7-methylpurine ribonucleosde, 1 uM (1 unit/ml) purine-nucleoside phosphorylase (Sigma N8264) and 200 uM of the non-varied substrate. Reactions were monitored with a Spectramax plate reader. The Michaelis-Menten kinetics protocol of the Spectramax software was customized for the substrate concentrations used. The software returns values of KM and Vmax using the Lineweaver-Burke transformation of the Michaelis-Menten equation. To determine kcat, Vmax (uM/min) was divided by the enzyme concentration (uM). […] KI was then calculated from the following form of the Michaelis-Menten equation for competitive inhibition: KI=KM[I]/(KM app−KM) KM approximates the dissociation constant of the enzyme-substrate complex while kcat is the rate of conversion of substrate to product when the substrate concentration is saturating. kcat/KM is a widely accepted parameter for catalytic efficiency when substrate concentration is low (˜KM). […] The parameter kcat/KM×KI is used to quantify both catalytic efficiency and insensitivity and thus the overall fitness of the enzyme. […]

[3] = substrate saturation, Zm native

Row | Compound | kcat [1, 3] [min⁻¹] | kcat ([2]; PEP varied) | Ki [1] [nM] | (kcat/KM)*KI [1, 3] | Ki [2] [µM] | (kcat/KM)*KI ([2]; PEP as substrate, glyphosate as inhibitor)
1 | C=C(OP(=O)(O)O)C(=O)O [PEP, phosphoenolpyruvate] | 1036 | 125 |  |  |  | 
2 | O=C(O)CNCP(=O)(O)O [glyphosate, N-phosphonomethylglycine] |  |  | 130 | 12 | 463 | 1143
